From US7189708B2, “Topical composition for skin” (Kao Corporation, priority 1999, dated 2007) come the findings set out here.

One assay concerns SD male rats. As to the kind of experiment: Maintenance of skin elasticity in rat (UV-B exposed hind limb pads; cutometer and SEM linearity of elastic fibers). Set-up: Ue value / Uf value: unit not given here. The conditions noted are these: for Ue value / Uf value: 10 μL on pad after UV-B, three times a week, six weeks, cutometer 500 hPa; for Ue value: solvent only 0.02125, no treatment 0.03294; for Uf value: solvent only 0.03333, no treatment 0.04833; for Linearity: linearity of elastic fibers A/(B×C) from SEM micrographs of rat pad, linear = 1, solvent only 0.5133, no treatment 0.7345. The format is in vivo. As to the method:
Maintenance of Skin Elasticity in Rat
Three-week-old SD male rats were classified into three groups (five rats per group): a group of rats to which an 80% ethanol solution containing a test compound was applied to pads of hind limbs; a group of rats to which a solvent (80% ethanol) was applied to the pads; and a group of non-treated rats. Each pad was exposed to UV-B rays (less than 1 MED), and then the test compound-containing solution or the solvent was applied to the pad in an amount of 10 μL. The above procedure was carried out three times a week (every other day of the week days) for six weeks.
Skin elasticity was determined using a cutometer (model: SES575, product of Courage Kazaka) as follows. The skin of the pad was subjected to suction at 500 hPa for three seconds, and then released for three seconds. The displacement over six seconds was measured, to thereby obtain Ue and Uf values. The measurement was repeated five times for each pad.
The linearity of elastic fibers was analyzed according to the method of Imokawa et al. (J. Invest. Dermatol., 105, 254–258(1995)) through image analysis of an SEM micrograph. Specifically, samples for scanning electron microscopy (SEM) were prepared by fixing the pad of a rat with Mercox (product of Dainippon Ink and Chemicals, Inc.) under reflux, followed by digestion with formic acid. From SEM micrographs (×1000) of each of the samples, ten typical micrographs were selected and enlarged copies were made. Each of the enlarged micrographs was divided into 16 uniform regions. From each of the regions, any one of the elastic fibers was selected and traced on a transparent film with a line having a fixed width (width: 8 pixels). When the area surrounded by the line tracing the elastic fiber is called A, and the longitudinal length and lateral length of the minimum rectangle surrounding the trace are called B and C, respectively, the linearity of the elastic fiber is represented by A/(B×C). For example, when the trace of the elastic fiber is linear, the linearity becomes 1.

The test system of the next assay is hairless mouse (HR/ICR). Briefly: Suppression of wrinkle formation in hairless mouse (UV-B exposure, topical application). The conditions noted are these: 100 μL on back after daily UV-B, 20 weeks, visual rating 0 (no wrinkle) to 4 (deep wrinkles), control 3.06 ± 0.13.
The test system of the next assay is C3H mice. As to the kind of experiment: Hair growth suppression in mouse (shaved back, topical application). The format is in vivo. The conditions noted are these: 100 μL twice a day on shaved back, area of hair regrowth after three weeks relative to control; for response vs control in vivo at 0.1 %: Mus musculus, topical, 504 h, 0.1% in 80% ethanol, read-out: Hair-growth suppression ratio; for Hair-growth suppression ratio: 1% in 80% ethanol. As to the method:
Hair Growth Suppression in Mouse
The hair on a portion of the backs (size: 2 cm×4 cm) of groups of six-week-old C3H mice, each group consisting of five mice, was carefully shaved so as not to injure the skin using an electric clipper and electric shaver. To the thus-shaved portion, a sample was applied in an amount of 100 μL twice a day for four weeks. Test compounds were dissolved in a solvent (80% ethanol) to attain the concentrations shown in Table 3, to thereby prepare samples. In the control group, only the solvent was applied to the shaved portion. After three weeks, in order to observe hair regrowth, the shaved portion was photographed at a certain magnification, and the ratio of the area of hair regrowth (i.e., the ratio of the area of hair regrowth to that of the shaved area) was compared with that of the control group using an image analyzer. The hair growth suppression ratio (%) was represented by a relative value when the ratio of the area of the hair regrowth in the control group was taken as 100.

[1] abbreviates: 0.1% test compound in 80% ethanol.
Where [2] appears, read: 1% test compound in 80% ethanol.

Peptide text beside a SMILES is read from it.

Experimental for hairless mouse (HR/ICR): Immediately after the exposure, an 80% ethanol solution (100 μL) containing a 0.1% test compound was applied to the back. The above procedure was carried out daily for 20 weeks. […] In the control group, only 80% ethanol was applied to the back of each mouse during the test. After the test, wrinkle formation was visually observed, and the degree of wrinkle formation was evaluated against the following ratings (wrinkle index).
1: A few shallow wrinkles were formed.
2: A slight amount of wrinkles was formed.
3: Some wrinkles were formed.
4: Deep wrinkles were formed.

In the assay with SD male rats (0.1% in 80% ethanol), `O=C(O)CCNC(=O)[C@H](Cc1ccccc1)NCC(=O)O` [Compound 1, N-(carboxymethyl)phenylalanyl-β-alanine] returned a Ue value of 0.03153 ± 0.00523 and a Uf value of 0.04711 ± 0.00213. Also, the Linearity in the assay on SD male rats (0.1%) came out at 0.7221 ± 0.0299. Further, the “Wrinkle Index” value in the assay with hairless mouse (HR/ICR) (setting [1]) was determined as 1.25 ± 0.11. Besides, the response vs control in vivo at 0.1 % with C3H mice worked out at 82.4%.
For the molecule `O=C(O)CCCNC(=O)[C@H](Cc1ccccc1)NCC(=O)O` [Compound 2], the “Wrinkle Index” value in the assay on hairless mouse (HR/ICR) (setting [1]) came out at 2.01 ± 0.14. The response vs control in vivo at 0.1 % in the assay with C3H mice was 73.3%.
Take `CC(C)C[C@H](NC(=O)[C@H](Cc1ccccc1)NCC(=O)O)C(=O)O` [Compound 3]: in the assay on SD male rats (0.1% in 80% ethanol), the Ue value turned out to be 0.02985 ± 0.01021 and the Uf value came to 0.04323 ± 0.01722. In the assay with SD male rats (0.1%), this molecule came in with a Linearity of 0.7013 ± 0.06551. Further, the “Wrinkle Index” value in the assay with hairless mouse (HR/ICR) (setting [1]) came to 1.82 ± 0.09. The response vs control in vivo at 0.1 % in the assay on C3H mice amounted to 72.3%.
Consider `C[C@H](NC(=O)[C@H](Cc1ccccc1)NCC(=O)O)C(=O)O` [Compound 4], for which, in the assay with SD male rats (0.1% in 80% ethanol), the Ue value is 0.03009 ± 0.00274 and the Uf value was found to be 0.04533 ± 0.00971. The Linearity in the assay with SD male rats (0.1%) is 0.7153 ± 0.0329. Further, in the assay with hairless mouse (HR/ICR) (setting [1]), the “Wrinkle Index” value turned out to be 1.75 ± 0.12. The response vs control in vivo at 0.1 % in the assay on C3H mice was 80.5%.
Taken in the same sequence, the figures for `O=C(O)CN[C@@H](Cc1ccccc1)C(=O)N[C@@H](CC(=O)O)C(=O)O` [Compound 5] were 0.02694 ± 0.00157, 0.04285 ± 0.00271, 0.6652 ± 0.0239, 2.21 ± 0.14 and 71%.
In the assay on SD male rats (0.1% in 80% ethanol), `CC(=O)N[C@@H](Cc1ccccc1)C(=O)NCCC(=O)O` [Compound 6] came in with a Ue value of 0.02433 ± 0.00921 and a Uf value of 0.03913 ± 0.00924. The molecule further gave a Linearity with SD male rats (0.1%) of 0.6078 ± 0.0195. For the same molecule, the “Wrinkle Index” value in the assay with hairless mouse (HR/ICR) (setting [1]) is on record as 2.57 ± 0.20. In addition, the response vs control in vivo at 0.1 % in the assay with C3H mice was found to be 58.3%.
For `CN(C)[C@@H](Cc1ccccc1)C(=O)NCCC(=O)O` [Compound 7] the same measures were 0.02623 ± 0.00874, 0.0412 ± 0.00258, 0.6423 ± 0.0433, 2.34 ± 0.10 and 69.6%.
In the assay with SD male rats (0.1% in 80% ethanol), `CCCN[C@@H](Cc1ccccc1)C(=O)NCCC(=O)O` [Compound 8] returned a Ue value of 0.02708 ± 0.00119 and a Uf value of 0.0427 ± 0.00657. The molecule further came in with a Linearity in the assay with SD male rats (0.1%) of 0.6976 ± 0.0422. Moreover, the “Wrinkle Index” value with hairless mouse (HR/ICR) (setting [1]) came out at 2.03 ± 0.09. Moreover, the response vs control in vivo at 0.1 % in the assay with C3H mice worked out at 77.8%.
For `CC(C)C[C@H](NCC(=O)O)C(=O)NCCC(=O)O` [Compound 9] the same measures were 0.02793 ± 0.00697, 0.04295 ± 0.00836, 0.6892 ± 0.0157, 2.11 ± 0.11 and 77.1%.
For the molecule `N[C@@H](Cc1ccccc1)C(=O)NCC(=O)O` [Compound 11, Phe-Gly] (H-Phe-Gly-OH), the “Wrinkle Index” value in the assay on hairless mouse (HR/ICR) (setting [2]) came to 2.82 ± 0.18. In addition, the Hair-growth suppression ratio in the assay on C3H mice was 32.9%.
Consider `N[C@@H](Cc1ccccc1)C(=O)NCCC(=O)O` [Compound 12, Phe-β-Ala], for which, in the assay on SD male rats (1% in 80% ethanol), the Ue value is given as 0.03326 ± 0.01267 and the Uf value worked out at 0.04572 ± 0.01862. In addition, in the assay with SD male rats (1%), the Linearity amounted to 0.7197 ± 0.0321. In the assay with hairless mouse (HR/ICR) (setting [2]), the “Wrinkle Index” value turned out to be 1.98 ± 0.20. Moreover, in the assay with C3H mice, the Hair-growth suppression ratio is reported as 90.4%.
For the molecule `N[C@@H](Cc1ccccc1)C(=O)N[C@@H](Cc1ccccc1)C(=O)O` [Compound 13, Phe-Phe] (H-Phe-Phe-OH), the “Wrinkle Index” value in the assay on hairless mouse (HR/ICR) (setting [2]) is 2.64 ± 0.16. In the assay on C3H mice, the Hair-growth suppression ratio worked out at 78.5%.
For `CC(C)C[C@H](NC(=O)[C@@H](N)Cc1ccccc1)C(=O)O` [Compound 14, Phe-Leu] (H-Phe-Leu-OH) the same measures were 2.82 ± 0.22 and 70.9%.
On to `N[C@@H](Cc1ccccc1)C(=O)N[C@@H](CC(=O)O)C(=O)O` [Compound 16, Phe-Asp] (H-Phe-Asp-OH), for which, in the assay on hairless mouse (HR/ICR) (setting [2]), the “Wrinkle Index” value worked out at 2.50 ± 0.15. Besides, the Hair-growth suppression ratio in the assay with C3H mice is 75.2%.
With `NC(Cc1ccccc1)C(=O)NCCS(=O)(=O)O` (stereo not drawn) [Compound 17, Phe-Tau], in the assay with SD male rats (1% in 80% ethanol), the Ue value is given as 0.02894 ± 0.0114 and the Uf value is recorded as 0.04369 ± 0.00872. The molecule further showed a Linearity with SD male rats (1%) of 0.6913 ± 0.0341. The “Wrinkle Index” value in the assay with hairless mouse (HR/ICR) (setting [2]) is reported as 1.99 ± 0.12. In addition, in the assay with C3H mice, the Hair-growth suppression ratio was found to be 79.5%.
